Data: patent US6781000B1, “Alpha-ketoamide inhibitors of 20S proteasome” (CV Theurapeutics, Inc., priority 1998, dated 2004)

Molecular target: T1, chymotrypsin-like activity of 20S proteasome (Bos taurus, UniProt Q2TBX6+Q32KL2)
T1 construct: was purified to homogeneity from bovine brain according to published methods; from tissue; host or cells: bovine brain
Experiment: 20S proteasome chymotryptic activity inhibition assay (Suc-Leu-Leu-Val-Tyr-AMC cleavage)
Assay type: biochemical
Settings: 2 μg 20S proteasome from bovine brain, 50 μM fluorogenic substrate, 15 minutes at 37° C., pH7.5
Method: Compounds of this invention prepared according to the method of Example 1 were tested as follows. The 20S catalytic subunit of the proteasome (also known as the multicatalytic proteinase complex) was purified to homogeneity from bovine brain according to published methods (Wilk S. and Orlowski,M 1983, 40 842 J.Neurochem). The chymotryptic activity of the complex is measured by the increase in fluorescence following cleavage of the substrate peptide succinyl-leucine-leucine-valine-tyrosine-7-amino-4methyl coumarin. The standard in vitro assay consists of 2 μg 20S proteasome, 0.1-100 μg/ml proteasome inhibitor in 200 μl 50 mM HEPES, containing 0.1% sodium dodecyl sulphate, pH7.5. The proteolytic reaction is initiated by the addition of 50 μM flourogenic peptide substrate and allowed to progress for 15 minutes at 37° C. The reaction is terminated by the addition of 100 μL of 100 mM acetate buffer, pH4.0. The rate of proteolysis is directly proportional to the amount of liberated aminomethylcoumarin which is measured by fluorescent spectroscopy (EX 370 nm, EM 430 nm).

Structure (SMILES) | IC50 for the inhibition of the chymotrypsin-like activity of 20S proteasome | IC50
CC(C)CC(NC(=O)C(Cc1ccc2ccccc2c1)NC(=O)C(=O)Cc1c[nH]c2ccccc12)C(=O)NCC(=O)O (centres unmarked) [Compound 65] | >10 µg/mL | –
CC(C)CC(NC(=O)C(NC(=O)C(=O)Cc1c[nH]c2ccccc12)C(C)C)C(=O)NC(Cc1ccccc1)C(=O)O (centres unmarked) [Compound 111] | >10 µg/mL | –
CC(C)CC(NC(=O)CCNC(=O)C(=O)Cc1c[nH]c2ccccc12)C(=O)NCC(=O)O (centres unmarked) [Compound 53] | – | > 22.5 µM
CCC(C)C(NC(=O)C(CC(C)C)NC(=O)C(CC(C)C)NC(=O)C(=O)Cc1c[nH]c2ccccc12)C(=O)O (centres unmarked) [Compound 19] | >10 µg/mL | –
CC(C)CC(NC(=O)C(NC(=O)C(=O)Cc1c[nH]c2ccccc12)C(C)O)C(=O)NCC(=O)O (centres unmarked) [Compound 56] | >10 µg/mL | –
CC(C)CC(NC(=O)C(Cc1ccc(O)cc1)NC(=O)C(=O)Cc1c[nH]c2ccccc12)C(=O)NC(CO)C(=O)O (centres unmarked) [Compound 98] | >10 µg/mL | –
CC(C)CC(NC(=O)C(=O)Cc1c[nH]c2ccccc12)C(=O)NC(CC(C)C)C(=O)NC(Cc1ccc(O)cc1)C(=O)O (centres unmarked) [Compound 31] | >10 µg/mL | –
CC(C)CC(NC(=O)C(Cc1ccccc1)NC(=O)C(=O)Cc1c[nH]c2ccccc12)C(=O)NC(C)C(=O)O (centres unmarked) [Compound 70] | >10 µg/mL | –
CC(C)CC(NC(=O)C(=O)Cc1c[nH]c2ccccc12)C(=O)NC(CC(C)C)C(=O)NC(C(=O)O)C(C)C (centres unmarked) [Compound 27] | >10 µg/mL | –
CC(C)CC(NC(=O)C(C)NC(=O)C(=O)Cc1c[nH]c2ccccc12)C(=O)NC(CO)C(=O)O (centres unmarked) [Compound 94] | >10 µg/mL | –
CCCCC(NC(=O)C(CC(C)C)NC(=O)C(CCCC)NC(=O)C(=O)Cc1c[nH]c2ccccc12)C(=O)O (centres unmarked) [Compound 121] | >10 µg/mL | –
CC(C)C[C@@H](NC(=O)[C@@H](NC(=O)C(=O)Cc1c[nH]c2ccccc12)C(C)C)C(=O)NCC(=O)O [Compound 59] | – | > 21.2 µM
CC(C)CC(NC(=O)C(Cc1ccc(-c2ccccc2)cc1)NC(=O)C(=O)Cc1c[nH]c2ccccc12)C(=O)NC(CO)C(=O)O (centres unmarked) [Compound 103] | >10 µg/mL | –
CC(C)CC(NC(=O)CCNC(=O)C(=O)Cc1c[nH]c2ccccc12)C(=O)NC(Cc1ccc(O)cc1)C(=O)O (centres unmarked) [Compound 84] | >10 µg/mL | –
CC(C)CC(NC(=O)CNC(=O)C(=O)Cc1c[nH]c2ccccc12)C(=O)NC(C)C(=O)O (centres unmarked) [Compound 67] | >10 µg/mL | –
CCC(C)C(NC(=O)C(CC(C)C)NC(=O)C(CC(C)C)NC(=O)C(=O)Cc1c[nH]c2ccccc12)C(=O)O (centres unmarked) [Compound 29] | >10 µg/mL | –

Structure (SMILES) | IC50 for the inhibition of the chymotrypsin-like activity of 20S proteasome | IC50
CC(C)CC(NC(=O)C(NC(=O)C(=O)Cc1c[nH]c2ccccc12)C(C)O)C(=O)NC(Cc1ccccc1)C(=O)O (centres unmarked) [Compound 108] | >10 µg/mL | –
CC(C)CC(NC(=O)C(CC(C)C)NC(=O)C(CC(C)C)NC(=O)C(=O)Cc1c[nH]c2ccccc12)C(=O)O (centres unmarked) [Compound 28] | >10 µg/mL | –
CCCC(NC(=O)C(=O)Cc1c[nH]c2ccccc12)C(=O)NC(CC(C)C)C(=O)NC(C(=O)O)C(C)C (centres unmarked) [Compound 45] | >10 µg/mL | –
CC(C)C[C@@H](NC(=O)[C@H](Cc1ccc(-c2ccccc2)cc1)NC(=O)C(=O)Cc1c[nH]c2ccccc12)C(=O)N[C@H](C(=O)O)C(C)C [Compound 51] | – | > 15.7 µM
CC(C)CC(NC(=O)C(C)NC(=O)C(=O)Cc1c[nH]c2ccccc12)C(=O)NCC(=O)O (centres unmarked) [Compound 57] | >10 µg/mL | –
CCCCC(NC(=O)C(CC(C)C)NC(=O)CNC(=O)C(=O)Cc1c[nH]c2ccccc12)C(=O)O (centres unmarked) [Compound 119] | >10 µg/mL | –
CCCCC(NC(=O)C(=O)Cc1c[nH]c2ccccc12)C(=O)NC(CC(C)C)C(=O)NC(C)C(=O)O (centres unmarked) [Compound 69] | >10 µg/mL | –
CCC(C)C(NC(=O)C(=O)Cc1c[nH]c2ccccc12)C(=O)NC(CC(C)C)C(=O)NC(C)C(=O)O (centres unmarked) [Compound 77] | – | > 20 µM
CC(C)CC(NC(=O)C(=O)Cc1c[nH]c2ccccc12)C(=O)NC(CC(C)C)C(=O)NCC(=O)O (centres unmarked) [Compound 5] | – | > 20.6 µM
CCCC(NC(=O)C(=O)Cc1c[nH]c2ccccc12)C(=O)NC(CC(C)C)C(=O)NCC(=O)O (centres unmarked) [Compound 60] | >10 µg/mL | –
CC(C)CC(NC(=O)C(NC(=O)C(=O)Cc1c[nH]c2ccccc12)C(C)O)C(=O)NC(C)C(=O)O (centres unmarked) [Compound 71] | >10 µg/mL | –
CCC(C)C(NC(=O)C(=O)Cc1c[nH]c2ccccc12)C(=O)NC(CC(C)C)C(=O)NC(CO)C(=O)O (centres unmarked) [Compound 99] | >10 µg/mL | –
CC(C)C[C@@H](NC(=O)C(=O)Cc1c[nH]c2ccccc12)C(=O)N[C@H](CC(C)C)C(=O)NCc1ccccc1 [Compound 3] | – | > 19.3 µM
CC(C)CC(NC(=O)CCNC(=O)C(=O)Cc1c[nH]c2ccccc12)C(=O)NC(C(=O)O)C(C)C (centres unmarked) [Compound 38] | >10 µg/mL | –
CC(C)CC(NC(=O)CCNC(=O)C(=O)Cc1c[nH]c2ccccc12)C(=O)NC(Cc1ccccc1)C(=O)O (centres unmarked) [Compound 105] | >10 µg/mL | –
CC(C)CC(NC(=O)C(CC(C)C)NC(=O)C(CC(C)C)NC(=O)C(=O)Cc1c[nH]c2ccccc12)C(=O)O (centres unmarked) [Compound 33] | >10 µg/mL | –

Continued, values first:

IC50 for the inhibition of the chymotrypsin-like activity of 20S proteasome | IC50 | Structure (SMILES)
– | > 18.8 µM | CC(C)C[C@@H](NC(=O)[C@H](CC(=O)O)NC(=O)C(=O)Cc1c[nH]c2ccccc12)C(=O)N[C@H](C(=O)O)C(C)C [Compound 200]
>10 µg/mL | – | CCCCC(NC(=O)C(CC(C)C)NC(=O)C(Cc1ccccc1)NC(=O)C(=O)Cc1c[nH]c2ccccc12)C(=O)O (centres unmarked) [Compound 122]
>10 µg/mL | – | CCCCC(NC(=O)C(CC(C)C)NC(=O)C(NC(=O)C(=O)Cc1c[nH]c2ccccc12)C(C)O)C(=O)O (centres unmarked) [Compound 123]
>10 µg/mL | – | CC(C)CC(NC(=O)C(CC1CCCCC1)NC(=O)C(=O)Cc1c[nH]c2ccccc12)C(=O)NC(C(=O)O)C(C)C (centres unmarked) [Compound 168]
1 µg/mL | – | CC(C)CC(NC(=O)C(Cc1ccc(-c2ccccc2)cc1)NC(=O)C(=O)Cc1c[nH]c2ccccc12)C(=O)NC(CC(=O)O)C(=O)O (centres unmarked) [Compound 176]
>10 µg/mL | – | CC(C)CC(NC(=O)C(C)NC(=O)C(=O)Cc1c[nH]c2ccccc12)C(=O)NC(CCC(=O)O)C(=O)O (centres unmarked) [Compound 154]
>10 µg/mL | – | CCCC(NC(=O)C(=O)Cc1c[nH]c2ccccc12)C(=O)NC(CC(C)C)C(=O)NC(CCC(=O)O)C(=O)O (centres unmarked) [Compound 157]
5 µg/mL | – | CCCCC(NC(=O)C(CC(C)C)NC(=O)C(Cc1ccc(-c2ccccc2)cc1)NC(=O)C(=O)Cc1c[nH]c2ccccc12)C(=O)O (centres unmarked) [Compound 174]
>10 µg/mL | – | CC(C)CC(NC(=O)C(=O)Cc1c[nH]c2ccccc12)C(=O)NC(Cc1ccccc1)C(=O)O (centres unmarked) [Compound 182]
– | > 18.4 µM | CCCC[C@H](NC(=O)[C@@H](CC(C)C)NC(=O)[C@H](CC(=O)O)NC(=O)C(=O)Cc1c[nH]c2ccccc12)C(=O)O [Compound 125]
>10 µg/mL | – | CC(C)CC(NC(=O)C(Cc1ccc2ccccc2c1)NC(=O)C(=O)Cc1c[nH]c2ccccc12)C(=O)NC(Cc1ccccc1)C(=O)O (centres unmarked) [Compound 179]
>10 µg/mL | – | CC(C)CC(NC(=O)C(Cc1ccc(-c2ccccc2)cc1)NC(=O)C(=O)Cc1c[nH]c2ccccc12)C(=O)NC(Cc1ccccc1)C(=O)O (centres unmarked) [Compound 175]
>10 µg/mL | – | CC(C)CC(NC(=O)C(Cc1ccc2ccccc2c1)NC(=O)C(=O)Cc1c[nH]c2ccccc12)C(=O)NC(Cc1cccnc1)C(=O)O (centres unmarked) [Compound 206]
>10 µg/mL | – | CC(C)CC(NC(=O)C(Cc1ccc(-c2ccccc2)cc1)NC(=O)C(=O)Cc1c[nH]c2ccccc12)C(=O)NC(CC(=O)O)C(=O)O (centres unmarked) [Compound 195]
>10 µg/mL | – | CC(C)CC(NC(=O)C(Cc1ccccc1)NC(=O)C(=O)Cc1c[nH]c2ccccc12)C(=O)NC(CC(=O)O)C(=O)O (centres unmarked) [Compound 137]
>10 µg/mL | – | CC(C)CC(NC(=O)C(Cc1ccc2ccccc2c1)NC(=O)C(=O)Cc1c[nH]c2ccccc12)C(=O)NC(C(=O)O)C(C)C (centres unmarked) [Compound 164]
>10 µg/mL | – | CCCCC(NC(=O)C(=O)Cc1c[nH]c2ccccc12)C(=O)NC(CC(C)C)C(=O)NC(CC(=O)O)C(=O)O (centres unmarked) [Compound 136]
>10 µg/mL | – | CC(C)C(NC(=O)C(NC(=O)C(NC(=O)C(=O)Cc1c[nH]c2ccccc12)C(C)C)C(C)C)C(=O)O (centres unmarked) [Compound 203]
